In patent US9371337B2, “β-lactamase inhibitors” (The Regents of the University of California, priority 2011, dated 2016):

Experiments:
[1] = test system: E. coli 144, AmpC-overproducing; assay: MIC of third-generation cephalosporins alone and with compounds (Table 6); type: cell-based, Escherichia coli; details: antibiotic alone
Protocol: (§1) The anti-resistance activity of inhibitors was investigated by the determination of the minimum inhibitory concentrations (MICs) of the β-lactam/inhibitor combination necessary to inhibit the growth of clinically-isolated bacteria resistant to third-generation cephalosporins via expression of class A or class C β-lactamases (Table 6).
(§2) Susceptibility testing was performed and interpreted following the guidelines of CLSI. (Clinical and Laboratory Standards Institute, Performance standards for antimicrobial susceptibility testing, 20th Informational Supplement, M100-S20 2010) The compounds were dissolved in 50% DMSO, and dilutions were performed using Muller-Hinton medium. An adequate final concentration was obtained to determine the minimum inhibitory concentrations (MICs). The concentration of DMSO was maintained below 5%. The inhibitors were tested for synergy with the third-generation β-lactams ceftazidime and cefotaxime against several clinical bacteria. The ratio of β-lactams to inhibitors was 1:4. Each value reported reflects the average of three independent experiments. […] The Friedman's test and the Wilcoxon signed rank test were used to compare MIC values. Statistical significance was established at p<0.05.
(§3) Table 6. MICs (μg/ml) of third-generation cephalosporins alone and in association with the compounds (ratio 1/4) for clinical bacteria. CTX, cefotaxime and CAZ, ceftazidime. ^1, AmpC-overproducing bacteria; ^2, CTX-M-14-producing E. coli; ^3, KPC-2-producing K. pneumoniae; ^4, OXA-48-producing K. pneumoniae; ^5, NDM-1-producing C. freundii.

[2] = test system: E. coli 146, AmpC-overproducing; assay: as above; type: cell-based, Escherichia coli; details: antibiotic alone
Protocol: as §1, §2, §3

[3] = test system: E. coli, AmpC-overproducing; assay: as above; type: cell-based, Escherichia coli; details: antibiotic alone
Protocol: as §1, §2, §3

[4] = test system: E. coli 145, AmpC-overproducing; assay: as above; type: cell-based, Escherichia coli; details: antibiotic alone
Protocol: as §1, §2, §3

[5] = test system: E. coli 142, AmpC-overproducing; assay: as above; type: cell-based, Escherichia coli; details: antibiotic alone
Protocol: as §1, §2, §3

[6] = test system: CTX-M-14-producing E. coli; assay: as above; type: cell-based, Escherichia coli; details: antibiotic alone
Protocol: as §1, §2, §3

[7] = test system: E. coli R1, AmpC-overproducing; assay: as above; type: cell-based, Escherichia coli; details: antibiotic alone
Protocol: as §1, §2, §3

[8] = test system: C. freundii overproducing chromosomally-mediated class C β-lactamase; assay: MIC of third-generation cephalosporins alone and with compounds 4 or 9 (Table 3); type: cell-based, Citrobacter freundii; details: antibiotic alone
From the text: (§4) Antimicrobial activity was investigated quantitatively to determine the minimum inhibitory concentrations (MICs) of the β-lactam/inhibitor combination necessary to inhibit the bacterial growth (Table 3). The MICs of β-lactams alone against the strains corresponded to a high level of resistance according to Clinical and Laboratory Standards Institute (CLSI) standards. (Clinical and Laboratory Standards Institute, Performance standards for antimicrobial susceptibility testing, 20th Informational Supplement, M100-S20 2010) The compounds had no measurable antibiotic activity when used alone.
(§5) Susceptibility testing was performed and interpreted following the guidelines of CLSI. (Clinical and Laboratory Standards Institute, Performance standards for antimicrobial susceptibility testing, 20th Informational Supplement, M100-S20 2010) The compounds were dissolved in 50% DMSO, and dilutions were performed using Muller-Hinton medium. An adequate final concentration was obtained to determine the minimum inhibitory concentrations (MICs). The concentration of DMSO was maintained below 5%. The inhibitors were tested for synergy with the third-generation β-lactams ceftazidime and cefotaxime against several clinical bacteria. […] Each value reported reflects the average of three independent experiments. […] A Klebsiella pneumoniae isolate produced the inducible plasmid-mediated class C enzyme DHA-1. The Friedman's test and the Wilcoxon signed rank test were used to compare MIC values. Statistical significance was established at p<0.05.

[9] = test system: K. pneumoniae producing the plasmid-mediated class C β-lactamase DHA-1; assay: as above; type: cell-based, Klebsiella pneumoniae; details: antibiotic alone
From the text: as §4, §5

[10] = test system: E. cloacae overproducing chromosomally-mediated class C β-lactamase; assay: as above; type: cell-based, Enterobacter cloacae; details: antibiotic alone
From the text: as §4, §5

[11] = test system: E. cloacae, AmpC-overproducing; assay: MIC of third-generation cephalosporins alone and with compounds (Table 6); type: cell-based, Enterobacter cloacae; details: antibiotic alone
Protocol: as §1, §2, §3

[12] = test system: E. cloacae 135, AmpC-overproducing; assay: as above; type: cell-based, Enterobacter cloacae; details: antibiotic alone
Protocol: as §1, §2, §3

[13] = test system: E. coli producing plasmid-mediated class A β-lactamase CTX-M-14; assay: MIC of third-generation cephalosporins alone and with compounds 4 or 9 (Table 3); type: cell-based, Escherichia coli; details: antibiotic alone
From the text: as §4, §5

[14] = test system: E. coli overproducing chromosomally-mediated class C β-lactamase; assay: as above; type: cell-based, Escherichia coli; details: antibiotic alone
From the text: as §4, §5

[15] = test system: P. aeruginosa overproducing chromosomally-mediated class C β-lactamase; assay: as above; type: cell-based, Pseudomonas aeruginosa; details: antibiotic alone
From the text: as §4, §5

[16] = test system: C. freundii 101, AmpC-overproducing; assay: MIC of third-generation cephalosporins alone and with compounds (Table 6); type: cell-based, Citrobacter freundii; details: antibiotic alone
Protocol: as §1, §2, §3

[17] = test system: C. freundii, AmpC-overproducing; assay: as above; type: cell-based, Citrobacter freundii; details: antibiotic alone
Protocol: as §1, §2, §3

[18] = test system: NDM-1-producing C. freundii; assay: as above; type: cell-based, Citrobacter freundii; details: antibiotic alone
Protocol: as §1, §2, §3

[19] = test system: K. pneumoniae, AmpC-overproducing; assay: as above; type: cell-based, Klebsiella pneumoniae; details: antibiotic alone
Protocol: as §1, §2, §3

[20] = test system: OXA-48-producing K. pneumoniae; assay: as above; type: cell-based, Klebsiella pneumoniae; details: antibiotic alone
Protocol: as §1, §2, §3

[21] = test system: P. aeruginosa, AmpC-overproducing; assay: as above; type: cell-based, Pseudomonas aeruginosa; details: antibiotic alone
Protocol: as §1, §2
Table 6. MICs (μg/ml) of third-generation cephalosporins alone and in association with the compounds (ratio 1/4) for clinical bacteria. […]

[22] = test system: AmpC-overproducing Escherichia coli strain 4; assay: Mouse model of bacteremia and sepsis, survival; type: in vivo, OF1 mice; details: 120 h post infection; ip at 0.5, 3.5, 6.5 h; imipenem 50 mg/kg, cefotaxime 50 mg/kg, cefotaxime:CR161 50:200 mg/kg
Protocol: FIG. 17. Percentage of survival of mice infected with AmpC-overproducing Escherichia coli over the course of 5 days (120 h). Mice were inoculated by intraperitoneal injection with AmpC-overproducing Escherichia coli strain 4 (1±0.5 10^9 colony-forming units) and treated at 0.5, 3.5, 6.5 h after infection by intraperitoneal injection of 50 mg/kg imipenem (□, n=20), 50:200 mg/kg cefotaxime:CR161 combination (▪, n=17), 50 mg/kg cefotaxime (●, n=20) or sterile isotonic saline (◯, n=20).
Efficacy in a mouse model of infection. We had not observed such substantial reversal of bacterial resistance to β-lactams, across such a broad spectrum of clinical isolates, for previous series of boronic acid inhibitors of β-lactamase; indeed, this lack of efficacy had motivated this study. These new cell-culture MIC values inspired us to investigate the efficacy of one of these compounds in a mouse model of bacteremia and sepsis. […] Mice were treated with cefotaxime alone, cefotaxime combined with compound CR161, with sterile isotonic saline, and with imipenem as a reference treatment of systemic infections by cephalosporin-resistant enterobacteriaceae (FIG. 17); 20 mice were used in each clade. […]
OF1 mice 4-5 weeks of age and weighing 20-25 g were used in this study. […] The survival of mice in each group was monitored every 6 h for 5 days after infection. […]

## CC(C)(O/N=C(\C(=O)N[C@@H]1C(=O)N2C(C(=O)[O-])=C(C[n+]3ccccc3)CS[C@H]12)c1csc(N)n1)C(=O)O [Ceftazidime]
[1]
  MIC, cephalosporin alone: 64 µg/mL
[2]
  MIC, cephalosporin alone: 64 µg/mL
[3]
  MIC, cephalosporin alone: 128 µg/mL
[4]
  MIC, cephalosporin alone: 128 µg/mL
[5]
  MIC, cephalosporin alone: 32 µg/mL
[6]
  MIC, cephalosporin alone: 2 µg/mL
[7]
  MIC, cephalosporin alone: 8 µg/mL
[8]
  MIC, cephalosporin alone: 64 µg/mL
[9]
  MIC, cephalosporin alone: 32 µg/mL
[10]
  MIC, cephalosporin alone: 64 µg/mL
[11]
  MIC, cephalosporin alone: 64 µg/mL
[12]
  MIC, cephalosporin alone: 128 µg/mL
[13]
  MIC, cephalosporin alone: 2 µg/mL
[14]
  MIC, cephalosporin alone: 64 µg/mL
[15]
  MIC, cephalosporin alone: 32 µg/mL
[16]
  MIC, cephalosporin alone: 128 µg/mL
[17]
  MIC, cephalosporin alone: 64 µg/mL
[18]
  MIC, cephalosporin alone: 512 µg/mL
[19]
  MIC, cephalosporin alone: 32 µg/mL
[20]
  MIC, cephalosporin alone: 256 µg/mL
[21]
  MIC, cephalosporin alone: 32 µg/mL

## C[C@@H](O)[C@H]1C(=O)N2C(C(=O)O)=C(SCCN=CN)C[C@H]12 [Imipenem, imipenem]
[22]
  survival: 90%
